Results on one compound are retold here after patent publication US20110200545A1, “DEODORANT COMPOSITION AND METHODS FOR USE THEREOF” (priority 2010, published 2011).

One data set has as its system skin. Nature of the data set: application to skin, detrimental skin effects. It is filed as in vivo. The text has this:
The low pKa results in an acidic solution having a pH of about 1.9, which damages skin and results in skin peeling in the hours and/or days following application to skin.
The pH of skin is about 5.5. When the pH of the skin surface is less than about 3.8, skin peeling results. Additionally, side effects of skin adjusted to a pH of less than about 3.8 include: skin inflammation, dermatitis, itching, and/or sensitizing of the skin.

A short description of data set [1]: pH of acidic solution of the substance by itself. It is filed as physicochemical. The note with it: used by itself, unbuffered.

Regarding `CC(=O)Oc1ccccc1C(=O)O` [acetylsalicyclic acid], in the data set on skin (in a composition having a pH of about 3.8 or less), the “detrimental effects on skin” value was “an acid burn of the skin, inflammation, itching, sensitizing, dermatitis, and/or skin peeling”. Also, in the data set with skin (used by itself, hours and/or days following application to skin), the effect on skin result is listed as “acts as a skin peeler”. In addition, the “pH of acidic solution” value in data set [1] was “about 1.9”.
